The values below are quoted from earlier work in patent US7879572B2, “Regulation of F1-ATPase beta subunit cellular location” (Board of Supervisors of Louisiana State University And …, priority 2004, dated 2011).

The subject of one data set is islet cells. The note with it: 8-Br-cAMP 1 mM, independent of extracellular Ca2+.

As to `Nc1ncnc2c1nc(Br)n2[C@@H]1O[C@@H]2COP(=O)(O)O[C@H]2[C@H]1O` [8-Br-cAMP], the “effect on enterostatin inhibition of insulin secretion” value in the data set with islet cells was “blocked”.
Turning to `NCCc1c[nH]c2ccc(O)cc12` [serotonin], the dietary fat intake result (injections into the PVN) is given as “inhibited dietary fat intake”.
Take `Oc1ccc2c3c1O[C@H]1c4[nH]c5c(c4C[C@@]4(O)[C@@H](C2)N(CC2CC2)CC[C@]314)C[C@@]1(O)[C@H]2Cc3ccc(O)c4c3[C@@]1(CCN2CC1CC1)[C@H]5O4` [nor-Binaltorphamine (BNI), nor-Binaltorphamine]: the selective fat intake entry (kappa-opioidergic antagonist) is given as “mimicked the effect of enterostatin”.
